Test results: patent US20220160664A1, “TAZ ACTIVATORS AND WNT AGONISTS FOR TREATING EAR DISORDERS” (Frequency Therapeutics, Inc., priority 2019, published 2022)

What was measured:
GSK-3 alpha = GSK-3 alpha (Homo sapiens, UniProt P49840); settings: Table 2; kind of potency not given; cited from earlier work
[1] = tested on: Lgr5 GFP(+) cochlear progenitor cells; experiment: Lgr5+ Assay / Stem Cell Proliferation Assay: proliferation and enrichment of Lgr5 GFP(+) cochlear progenitor cells; format: cell-based
Text: FIG. 1A is a graph depicting that the TAZ activator IBS008738 enhances Lgr5 GFP(+) progenitor cell proliferation when combined with CHIR in a background of growth factors. The y-axis depicts Lgr5 GFP(+) cell count and the x-axis depicts control conditions (background growth factors plus CHIR (EFI-C) or CHIR and VPA (EFI-CV)) versus CHIR+IBS008738 (EFI-C-IBS).
The y-axis depicts Lgr5 GFP(+) cell area and the x-axis depicts concentration of FHZ-000706.
FIG. 4A is a graph depicting that the TAZ activator FHZ-000706 enhances Lgr5 GFP(+) progenitor cell proliferation when combined with CHIR in a background of growth factors compared to CHIR alone.
The TAZ activator and the Wnt agonist (optionally in combination with an epigenetic agent) is capable of (i) forming a proliferation assay final cell population from a proliferation assay initial cell population over a proliferation assay time period in a stem cell proliferation assay, and/or (ii) forming a differentiation assay final cell population from a differentiation assay initial cell population over a differentiation assay time period in a Stem Cell differentiation assay wherein: (a) the proliferation assay initial cell population has (i) a Proliferation assay initial number of total cells, (ii) a proliferation assay initial number of Lgr5+ cells, (iii) a proliferation assay initial number of hair cells, (iv) a proliferation assay initial Lgr5+ cell fraction that equals the ratio of the proliferation assay initial number of Lgr5+ cells to the proliferation assay initial number of total cells, and (v) a proliferation assay initial hair cell fraction that equals the ratio of the proliferation assay initial number of hair cells to the proliferation assay initial number of total cells; (b) the proliferation assay final cell population has (i) a proliferation assay final number of total cells, (ii) a proliferation assay final number of Lgr5+ cells, (iii) a proliferation assay final number of hair cells, (iv) a proliferation assay final Lgr5+ cell fraction that equals the ratio of the proliferation assay final number of Lgr5+ cells to the proliferation assay final number of total cells and (v) a proliferation assay final hair cell fraction that equals the ratio of the proliferation assay final number of hair cells to the proliferation assay final number of total cells; (c) the differentiation assay initial cell population has (i) a differentiation assay initial number of total cells, (ii) a differentiation assay initial number of Lgr5+ cells, (iii) a differentiation assay initial number of hair cells, (iv) a differentiation assay initial Lgr5+ cell fraction that equals the ratio of the differentiation assay initial number of Lgr5+ cells to the differentiation assay initial number of total cells, and (v) a differentiation assay initial hair cell fraction that equals the ratio of the differentiation assay initial number of hair cells to the differentiation assay initial number of total cells; (d) the differentiation assay final cell population has (i) a differentiation assay final number of total cells, (ii) a differentiation assay final number of Lgr5+ cells, (iii) a differentiation assay final number of hair cells, (iv) a differentiation assay final Lgr5+ cell fraction that equals the ratio of the differentiation assay final number of Lgr5+ cells to the differentiation assay final number of total cells, and (v) a differentiation assay final hair cell fraction that equals the ratio of the differentiation assay final number of hair cells to the differentiation assay final number of total cells; (e) the proliferation assay final number of Lgr5+ cells exceeds the proliferation assay initial number of Lgr5+ cells by a factor of at least 10; and/or (f) the differentiation assay final number of hair cells is a non-zero number.

[2] = cited from earlier work; for Human In Vivo Conc: Table 8
[3] = tested on: cochlear progenitor cells (Lgr5+); experiment: Lgr5 cell expansion: quantification of cell proliferation, expansion and enrichment (flow cytometry / Celigo imaging); format: cell-based, mice; settings: for enrichment of Lgr5+ progenitor cells / proliferation of Lgr5+ progenitor cells: TAZ activator 10 μM combined with Wnt agonist CHIR99021 (4 μM)
Protocol: Neonatal Lgr5-EGFP-IRES-Cre-ER mice (The Jackson Laboratory, strain 8875) were used to analyze the effects of small molecules on cochlear stem cell expansion (see Barker et al., Nature 449, 1003-7 (2007). This strain allowed for visualization and quantification of EGFP cells.
All animal studies were conducted under an approved institutional protocol per National Institutes of Health guidelines. Using neonatal animals, cochleae were dissected and the organ of Corti (sensory epithelium) was separated from the stria vascularis (ion transport epithelium) and the modiolus (nerve tissue). Epithelia were then collected and treated with TrypLE for 15-20 minutes to obtain single cells. The cells were then filtered ([…]) and suspended in a Matrigel (Corning) dome for 3D culture seeded at 0.5 cochlea per well.
Expansion of Lgr5 Cells: Cells were cultured in a 3D system and bathed in a serum free 1:1 mixture of DMEM and F12, supplemented with Glutamax (GIBCO), N2, B27 (Invitrogen), EGF (50 ng/mL; Chemicon), bFGF (50 ng/mL; Chemicon), IGF-1 (50 ng/mL; Chemicon), and small molecules for seven days. Media was changed every other day. Treatments were run in triplicate or quadruplicate.
Quantification of Cell Proliferation: Lgr5 cells were quantified after 7-10 days. Cell colonies were dissociated into single cells using TrypLE. The cells were then stained with propidium iodide (PI) and analyzed using a flow cytometer to count Lgr5-EGFP cells. The percentage of viable Lgr5 cells was plotted against the concentration in GraphPad Prism.
Organ of Corti are dissected from Lgr5 GFP(+) mice and dissociated as single cells as described above. Background media contains the same supplements and growth factors at the same concentrations as described above. Assays for image quantification are run in 96 well black plates with clear bottom with cells embedded in 50% Matrigel at cell density of 500 k cells/mL with 50 uL applied to each well. Cells are cultured for 7 days, with media change every 3-4 days. After 7 days of exposure to experimental conditions (e.g. small molecules), media is then removed from culture and replaced with media containing Hoescht at a 1:2000 dilution for a final concentration of 5 ug/mL (200 uL/well). The plate is then placed in a cell culture incubator at 37C for 1 hr. The media containing Hoescht is then removed and 200 uL/well of Cell Recovery Solution is added. The plate is then incubated on a plastic-wrapped (e.g. Saran wrap) CoolRack™ on ice for 80 minutes. Next, the plate is centrifuged for 5 minutes at 2300 RPMs (Beckman Coulter Allegra 6R centrifuge; GH 3.8A plate rotor; ambient temperature). Cells are then imaged on Celigo using 3 channels for brightfield, blue (Hoescht), and green (Lgr5 GFP). Proliferated cell colonies are captured as summed objects in the blue channel and the green channel. The green Lgr5 GFP(+) cell colonies are quantified for total GFP(+) cell area, while the blue hoescht stained colonies are quantified as total cell area. The % GFP(+) Cell Area is calculated using the total GFP(+) cell area divided by the total cell area multiplied by 100. All results are compiled and utilized to determine the effects of experimental conditions (e.g. small molecules) on the expansion and enrichment of the Lgr5 cell population.

KDM1b = target: T1, KDM1b (Homo sapiens, UniProt Q8NB78); settings: Table 9; read-out: Select KDM1b; cited from earlier work
T1 sequence (Q8NB78 1-822): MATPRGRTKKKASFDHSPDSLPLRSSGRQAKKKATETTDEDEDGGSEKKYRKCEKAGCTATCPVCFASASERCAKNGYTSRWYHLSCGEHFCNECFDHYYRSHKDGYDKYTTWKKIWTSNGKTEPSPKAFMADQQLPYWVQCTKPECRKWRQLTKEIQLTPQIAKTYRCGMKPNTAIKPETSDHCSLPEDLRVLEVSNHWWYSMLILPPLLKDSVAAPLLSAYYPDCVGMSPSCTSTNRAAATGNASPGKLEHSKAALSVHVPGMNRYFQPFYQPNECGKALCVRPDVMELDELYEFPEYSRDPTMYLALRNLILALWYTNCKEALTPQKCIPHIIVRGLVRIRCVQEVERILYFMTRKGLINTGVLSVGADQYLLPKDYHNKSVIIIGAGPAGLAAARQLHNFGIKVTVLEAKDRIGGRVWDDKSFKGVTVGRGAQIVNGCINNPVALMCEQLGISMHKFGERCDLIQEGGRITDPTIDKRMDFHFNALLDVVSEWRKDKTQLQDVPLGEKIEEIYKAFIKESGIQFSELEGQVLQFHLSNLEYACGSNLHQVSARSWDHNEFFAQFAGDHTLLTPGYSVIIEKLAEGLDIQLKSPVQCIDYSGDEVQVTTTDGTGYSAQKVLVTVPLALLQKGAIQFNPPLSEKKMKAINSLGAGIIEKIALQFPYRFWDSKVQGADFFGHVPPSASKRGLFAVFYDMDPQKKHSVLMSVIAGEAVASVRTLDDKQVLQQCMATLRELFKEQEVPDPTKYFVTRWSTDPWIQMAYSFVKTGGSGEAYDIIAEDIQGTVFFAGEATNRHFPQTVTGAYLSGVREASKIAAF

HDAC = settings: cited from earlier work
DOT1L = DOT1L (Homo sapiens, UniProt Q8TEK3); settings: DOT1L inhibitors, Table 8; cited from earlier work
TAZ = TAZ (Homo sapiens, UniProt Q9GZV5); settings: Table 1, TAZ activators, literature cell concentration; cited from earlier work
[4] = 0-30 μM FHZ-000706 in a background of growth factors
[5] = 10 μM FHZ-000706 + 4 μM CHIR99021 in growth factors compared to CHIR alone
[6] = Table 1, TAZ activators, concentration range in the assay
[7] = TAZ activator alone, FIG. 3A, 3B
[8] = 10 μM IBS008738 combined with 4 μM CHIR99021 and 1 mM VPA in growth factors versus EFI-C or EFI-CV controls

Sequence of GSK-3 alpha (P49840 whole entry): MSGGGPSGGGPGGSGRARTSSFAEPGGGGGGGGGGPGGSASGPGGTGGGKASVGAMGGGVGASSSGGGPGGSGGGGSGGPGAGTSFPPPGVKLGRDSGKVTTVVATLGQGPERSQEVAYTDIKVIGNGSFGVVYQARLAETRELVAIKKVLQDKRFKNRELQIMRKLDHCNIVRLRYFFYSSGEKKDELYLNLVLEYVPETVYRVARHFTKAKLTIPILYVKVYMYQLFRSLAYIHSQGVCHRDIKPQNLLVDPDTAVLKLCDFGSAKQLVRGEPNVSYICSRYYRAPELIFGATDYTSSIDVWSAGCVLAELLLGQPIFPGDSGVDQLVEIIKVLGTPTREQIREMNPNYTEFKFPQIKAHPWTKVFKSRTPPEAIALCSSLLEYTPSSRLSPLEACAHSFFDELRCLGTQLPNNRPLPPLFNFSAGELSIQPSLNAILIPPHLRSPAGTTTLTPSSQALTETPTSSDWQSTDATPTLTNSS
Sequence of TAZ (Q9GZV5 whole entry): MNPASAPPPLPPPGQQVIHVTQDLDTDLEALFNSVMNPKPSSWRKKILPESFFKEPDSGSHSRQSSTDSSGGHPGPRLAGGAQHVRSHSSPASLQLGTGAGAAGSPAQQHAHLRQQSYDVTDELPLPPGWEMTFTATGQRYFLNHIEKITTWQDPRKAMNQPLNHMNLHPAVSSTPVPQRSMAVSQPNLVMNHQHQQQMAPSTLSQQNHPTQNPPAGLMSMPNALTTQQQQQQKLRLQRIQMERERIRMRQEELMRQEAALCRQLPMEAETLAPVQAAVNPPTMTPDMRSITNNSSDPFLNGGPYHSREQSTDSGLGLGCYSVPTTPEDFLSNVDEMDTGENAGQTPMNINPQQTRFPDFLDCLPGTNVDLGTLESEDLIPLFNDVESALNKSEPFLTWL
Sequence of DOT1L (Q8TEK3 whole entry, species assumed): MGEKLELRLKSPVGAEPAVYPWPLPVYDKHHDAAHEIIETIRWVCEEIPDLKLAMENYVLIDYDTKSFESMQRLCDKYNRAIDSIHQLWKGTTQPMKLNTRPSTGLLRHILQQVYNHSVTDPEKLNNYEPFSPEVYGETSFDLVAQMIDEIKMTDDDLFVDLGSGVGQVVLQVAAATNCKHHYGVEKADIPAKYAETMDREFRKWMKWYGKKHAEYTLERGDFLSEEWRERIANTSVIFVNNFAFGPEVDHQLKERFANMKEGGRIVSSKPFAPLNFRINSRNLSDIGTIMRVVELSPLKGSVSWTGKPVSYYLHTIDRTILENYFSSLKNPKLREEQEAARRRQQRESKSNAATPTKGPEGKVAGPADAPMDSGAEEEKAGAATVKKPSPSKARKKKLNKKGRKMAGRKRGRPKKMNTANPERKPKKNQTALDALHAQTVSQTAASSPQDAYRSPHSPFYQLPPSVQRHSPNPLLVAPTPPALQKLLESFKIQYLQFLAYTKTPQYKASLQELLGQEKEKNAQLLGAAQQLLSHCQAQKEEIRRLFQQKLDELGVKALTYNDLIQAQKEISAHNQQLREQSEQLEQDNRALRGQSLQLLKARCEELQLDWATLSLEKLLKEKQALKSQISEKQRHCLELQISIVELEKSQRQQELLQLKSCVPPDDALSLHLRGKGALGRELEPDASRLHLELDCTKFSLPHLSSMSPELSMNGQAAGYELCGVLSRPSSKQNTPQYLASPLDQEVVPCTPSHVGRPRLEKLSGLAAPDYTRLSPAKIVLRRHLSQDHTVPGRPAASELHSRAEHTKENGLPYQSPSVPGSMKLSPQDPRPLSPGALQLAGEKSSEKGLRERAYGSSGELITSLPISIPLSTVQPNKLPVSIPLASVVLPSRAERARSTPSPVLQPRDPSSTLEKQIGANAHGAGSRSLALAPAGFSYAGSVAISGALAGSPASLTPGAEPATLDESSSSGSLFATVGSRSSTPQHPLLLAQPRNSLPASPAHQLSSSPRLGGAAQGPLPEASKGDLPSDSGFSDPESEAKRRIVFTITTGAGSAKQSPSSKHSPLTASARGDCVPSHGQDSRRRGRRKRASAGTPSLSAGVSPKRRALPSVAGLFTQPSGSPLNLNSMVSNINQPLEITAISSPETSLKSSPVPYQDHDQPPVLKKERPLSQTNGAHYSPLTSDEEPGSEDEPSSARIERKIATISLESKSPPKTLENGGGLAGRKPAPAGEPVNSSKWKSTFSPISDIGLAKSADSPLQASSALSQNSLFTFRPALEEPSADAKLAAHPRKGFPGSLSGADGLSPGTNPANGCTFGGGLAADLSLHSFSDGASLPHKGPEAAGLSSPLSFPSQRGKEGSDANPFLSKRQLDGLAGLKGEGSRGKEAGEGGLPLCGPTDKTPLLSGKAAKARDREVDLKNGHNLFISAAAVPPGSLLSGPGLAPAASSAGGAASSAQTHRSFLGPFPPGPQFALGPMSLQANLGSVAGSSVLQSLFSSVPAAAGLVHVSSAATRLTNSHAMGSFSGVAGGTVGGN

N#Cc1ccc2[nH]c(O)c(-c3ccc(CN4CCOCC4)cn3)c2c1 [AZD 1080]
IC50 (GSK-3 alpha): 0.0069 µM

CS(=O)(=O)c1ccc(-c2cnc(NCc3ccco3)n3cnnc23)cc1 [EED226, reference compound]
Lgr5+ Assay ([1]; Table 7, result in words): Active

CC(C)N(CCCNC(=O)Nc1ccc(C(C)(C)C)cc1)C[C@H]1O[C@@H](n2ccc3c(N)ncnc32)[C@H](O)[C@@H]1O [EPZ004777]
Human In Vivo Conc [2]: 0.1 to 45 µM

Cc1ccc(-n2cnc(N)c2C(=O)c2ccccc2)cc1 [FHZ-000706]
Lgr5 GFP(+) cell area (enrichment), FIG. 3B [1, 4]: does not enrich | Lgr5 GFP(+) cell area (proliferation), FIG. 3A [1, 4]: does not proliferate | Lgr5 GFP(+) cell area (proliferation), FIG. 4A [1, 5]: enhances | Lgr5 GFP(+) cell area percentage (enrichment), FIG. 4B [1, 5]: enhances | Lgr5+ Assay [1, 6]: 1 to 100 µM | enrichment of Lgr5+ progenitor cells [3]: enriched | proliferation of Lgr5+ progenitor cells [3]: proliferate | enrichment of cochlear progenitor cells [3, 7]: does not promote | proliferation of cochlear progenitor cells [3, 7]: does not promote

O=C(O)c1ccc(CN2CCC(CN[C@@H]3C[C@H]3c3ccccc3)CC2)cc1 [GSK-2879552]
IC50 (KDM1b): 20 µM

c1ccc([C@@H]2C[C@H]2NC2CCNCC2)cc1 [GSK-LSD1]
Lgr5+ Assay ([1]; Table 9, with <= the upper end of a range printed over two lines): ≤ 50 µM

C=CCNc1nc(N)c(C(=O)c2ccc(Cl)s2)s1 [IBS008738, reference compound]
Lgr5 GFP(+) cell count (progenitor cell proliferation), FIG. 1A ([1]; 10 μM IBS008738 + 4 μM CHIR99021 in growth factors (50 ng/mL EGF, bFGF, IGR1) versus EFI-C or EFI-CV controls): enhances | Lgr5 GFP(+) cell proliferation percentage (enrichment), FIG. 1B ([1]; 10 μM IBS008738 + 4 μM CHIR99021 in growth factors versus EFI-C or EFI-CV controls): enhances | Lgr5 GFP(+) cell count (progenitor cell proliferation), FIG. 2A [1, 8]: does not enhance | Lgr5 GFP(+) cell proliferation percentage (enrichment), FIG. 2B [1, 8]: enhances | Lgr5+ Assay [1, 6]: 1.1 to 30 µM | enrichment of Lgr5+ progenitor cells [3]: enriched | proliferation of Lgr5+ progenitor cells [3]: proliferate

O=C1NC(=O)C(c2cnc3ccccn23)=C1c1cn2c3c(cc(F)cc13)CN(C(=O)N1CCCCC1)CC2 [LY2090314, 3-(9-fluoro-2-(piperidine-1-carbonyl)-1,2,3,4-tetrahydro-[1,4]diazepino[6,7,1-hi]indol-7-yl)-4-(imidazo[1,2-a]pyridin-3-yl)-1H-pyrrole-2,5-dione]
IC50 (GSK-3 alpha): 0.0021 µM

O=C([O-])CCCc1ccccc1.[Na+] [Na phenylbutyrate]
Class selectivity (HDAC; Table 5, HDAC class): Class I > | IC50 (HDAC; Table 5, HDAC Inhib 1, 2, 3, 8, kind of potency not given, read-out: HDAC Potene): 9 to 16 µM

CC(C)N(CCCNC(=O)Nc1ccc(C(C)(C)C)cc1)C[C@H]1O[C@@H](n2cc(Br)c3c(N)ncnc32)[C@H](O)[C@@H]1O [SGC0946]
Human In Vivo Conc [2]: 0.1-5 μM uM | Lgr5+ Assay ([1]; concentration range, Table 8): 0.6 to 5 µM | Lit Cell (DOT1L): 10 mM

N[C@@H]1C[C@H]1c1ccccc1 [TCP]
Cmax ([2]; Table 9, in brackets under the ng/mL range, read-out: Human Plasma Conc.: Cmax): 225 to 1500 nM | Human Plasma Conc.: Cmax ([2]; Table 9): 30-200 ng/ml ng/mL

CCCCc1nc2cc(-c3cccnc3)c(C)nc2n1Cc1ccc(-c2ccccc2-c2nn[nH]n2)cc1 [TM-25659]
Lit Cell (TAZ): 10 to 100 µM

C=CCNc1nc(N)c(C(=O)c2ccc(F)s2)s1 [TT10]
Lit Cell (TAZ): 1 µM

CCCc1cc(C)[nH]c(=O)c1CNC(=O)c1cc(-c2ccc(N3CCN(C(C)C)CC3)nc2)cc2c1cnn2C(C)C [UN C1999, reference compound]
Lgr5+ Assay ([1]; Table 7, result in words): Active

CC(C)N(C[C@H]1O[C@@H](n2cnc3c(N)ncnc32)[C@H](O)[C@@H]1O)[C@H]1C[C@@H](CCc2nc3cc(C(C)(C)C)ccc3[nH]2)C1 [pinometostat]
Human In Vivo Conc: Total plasma Css ([2]; Table 8, in brackets under the ng/mL range): (1.42-2.94 uM) | Human In Vivo Conc [2]: (1-10 uM)
